Data: patent US12398110B2, “Second generation inhibitors of mitochondrial permeability transition pore with improved plasma stability” (Oregon Health & Science University, priority 2019, dated 2025)
Where two headings read alike, the source gives them in different places.

Assays:
Format in all cases: biochemical
[1] = system: mtPTP; assay: Ca2+ overload induced mitochondrial swelling in isolated mouse liver mitochondria; conditions: for mtPTP inhibitory activity (in words): SAR discussion of Table 2
Procedure: We next sought to evaluate the effects of TR001-13 on mtPTP activity in vitro. This was performed on isolated mitochondria. In isolated mitochondria induction of mtPTP opening leads to mitochondrial swelling due to the oncotic pressure gradient created by matrix proteins >1.5 kDa that cannot diffuse through the open pore. In in vitro experiments, where isolated mitochondria are routinely suspended in sucrose-based isosmotic solutions, the change in mitochondrial size can be measured spectrometrically by detecting the decrease in light scattering at 540 nm.
(§1) Isolation of mitochondria. C57BL6/N mouse liver mitochondria were prepared from 2 to 6 month old male mice by standard differential centrifugation. Mice fed ad libitum were euthanized with CO2 followed cervical dislocation, their livers were existed and placed in a glass beaker containing ice-cold isolation buffer (IB: 0.25 m sucrose, 10 mm Tris-HCl, 0.1 mm EGTA-Tris, pH 7.4) supplemented with fatty acid free bovine serum albumin. Livers were then cut into small pieces with scissors, rinsed with ice-cold IB, and passed through a pre-chilled Potter homogenizer with Teflon pestle. The homogenate (˜30 mL per liver) was transferred to centrifuge tubes, and unbroken cells and nuclei were removed by centrifugation at 700 g for 10 min at 4° C. The supernatant containing mitochondria and other organelles was transferred to new tubes and centrifuged at 6000 g for 10 min at 4° C. The resulting supernatant was discarded and mitochondrial pellet was carefully suspended in ice-cold IB and spun at 9500 g for 5 min at 4° C. The pellet was suspended in IB to give a protein concentration of ˜60-80 mg/mL and stored on ice. Experiments were started immediately and completed within 5 h. Protein concentration was determined by the Biuret method.
Assessment of mitochondrial swelling. Changes in mitochondrial volume of isolated mouse liver mitochondria were followed in a 96-well clear assay plate at a final volume of 0.2 mL and 0.25 mg/mL mitochondrial protein. Absorbance was read for 30 min at 540 nm on a Tecan Infinite F200 plate reader. Activity of test compounds was addressed as follows: First, 0.1 mL of sucrose assay buffer (SAB: 0.250 m sucrose, 10 mm MOPS-Tris, 0.01 mm EGTA-Tris, 1.0 mm phosphoric acid-Tris, 10 mm glutamate and 5 mm malate, pH 7.4) supplemented with twice the CaCl2 concentration required to induce mitochondrial swelling (which was determined for each preparation of mitochondria, typically 50 μm) was dispensed to the assay plate. A set of wells also contained 2.0 mm EGTA (to prevent mitochondrial swelling). The test wells contained a range of concentrations (in 1:2 serial dilutions) of the compounds of interest or 2% DMSO. Experiments were started by the addition of 0.1 mL of mitochondrial suspension (0.5 mg/mL mitochondria in SAB without respiratory substrates) to the assay plates. EC50s±SE were determined with OriginPro software by applying Hill1 function fitting algorithm on average concentration response data of n=3-41 independent preparations.

[2] = system: mtPTP; assay: Ca2+ retention capacity (CRC) of isolated mouse liver mitochondria
Procedure: CRC determines the Ca^2+ threshold required for mtPTP activation; inhibitors of mtPTP are expected to increase the Ca^2+ threshold required for mtPTP induction. Extramitochondrial Ca^2+ changes are detected using the membrane-impermeant Ca^2+ indicator, Calcium Green-5N.
as §1
Assessment of Ca^2+ retention capacity (CRC). CRC of isolated mouse liver mitochondria was assessed as follows: First, 0.1 mL of SAB were dispensed to a 96-well black assay plate in the presence of 2% DMSO (control wells) or varying concentrations of test compounds, in 1:2 serial dilutions. Then, 0.1 mL of 0.5 mg/mL mitochondria in SAB devoid of respiratory substrates, but supplemented with 1 μm Calcium Green-5N were added to all wells of the assay plate. A train of 10 μm CaCl2 pulses was added at 2 min intervals, and fluorescence intensity (ex/em 485/535 nm) was read on Tecan Infinite F200 plate reader.

[3] = system: inner mitochondrial membrane potential; assay: Rhodamine 123 (Rh123) uptake, mitochondrial membrane potential of isolated mouse liver mitochondria
Text: We next evaluated the mitochondrial toxicity of the new triazole analogs by testing their ability to interfere with accumulation of the membrane-permeant cationic fluorescent dye rhodamine 123 (Rh123). The mitochondrial uptake of positively charged Rh123 is driven by the inside negative IMM potential, which is built by the respiratory chain or maintained by ATP hydrolysis if certain conditions are met. […] It should be noted, however, that toxicity for these compounds only occurs at ˜10-1000-fold higher concentrations compared to mtPTP inhibition, providing a good therapeutic window.
Assessment of mitochondrial membrane potential. Mitochondrial membrane potential—to evaluate toxicity—of isolated mouse liver mitochondria was assessed based on fluorescence quenching of the cationic fluorescent dye Rh123 upon its accumulation into mitochondrial matrix due to inside negative membrane potential. Compounds that interfere with the build-up or maintenance of IMM potential would shift Rh123 fluorescence to higher values compared to DMSO treated samples. Uncoupler FCCP was used to account for nonspecific fluorescence. First, 0.1 mL of SAB was dispensed to a 96-well black assay plate. A set of wells also contained 0.8 μm FCCP (to prevent Rh123 uptake). The test wells contained a range of concentrations (in 1:2 serial dilutions) of the compounds of interest or 2% DMSO. Then, 0.1 mL of 0.5 mg/mL mitochondria in SAB devoid of respiratory substrates but supplemented with 0.8 μm Rh123 were added to all wells of the assay plate. Fluorescence intensity (ex/em 485/535 nm) was read on a Tecan Infinite F200 plate reader for 7 min and value at 5 min was considered for analysis. EC50s±SE were determined with OriginPro software by applying Hill1 function fitting algorithm on average concentration response data of n=3 independent preparations.

[4] = isolated mouse liver mitochondria, average ± SEM, n = 3-41, read-out: Mitochondrial Swelling EC50
[5] = compound treated CRC to DMSO treated CRC0 ratio, 1.25 μM, average ± SEM, n = 3-25
[6] = interference with Rh123 uptake to mitochondria, average ± SEM, n = 3, read-out: Rh123 uptake EC50
[7] = Mouse Liver Mitochondria (MLM), comparative examples, read-out: Swelling EC50
[8] = Mouse Liver Mitochondria (MLM), comparative examples
[9] = Mouse Liver Mitochondria (MLM), comparative examples, read-out: Rh123 EC50

| EC50 [1, 4] [µM] | EC50 [3, 6] [µM] | EC50 [1, 7] [µM] | EC50 [3, 9] [µM] | Compound | mtPTP inhibitory activity (in words) [1] | CRC/CRC0 at 1.25 μM [2, 5] | fold decrease in activity compared to TR002 ([1]; mitochondrial swelling, vs TR002) [fold] | CRC/CRC0 at 1.25 μM [2, 8] |
| --- | --- | --- | --- | --- | --- | --- | --- | --- |
| 0.135 ± 0.015 | > 40 | – | – | Cc1ccc(Cl)cc1NC(=O)c1cn(-c2ccc(Cl)c(O)c2)nn1 [TR006, N-(5-chloro-2-methylphenyl)-1-(4-chloro-3-hydroxyphenyl)-1H-1,2,3-triazole-4-carboxamide] | decreased activity | 3.9 ± 0.3 | – | – |
| > 20 | > 40 | – | – | Cc1ccc(Cl)cc1NC(=O)c1cn(-c2cccc(O)c2Cl)nn1 [TR007, N-(5-chloro-2-methylphenyl)-1-(2-chloro-3-hydroxyphenyl)-1H-1,2,3-triazole-4-carboxamide] | – | 1.2 ± 0.1 | – | – |
| 0.028 ± 0.005 | > 40 | – | – | Cc1ccc(Cl)cc1NC(=O)c1cn(-c2cc(O)cc(Cl)c2)nn1 [TR008, N-(5-chloro-2-methylphenyl)-1-(3-chloro-5-hydroxyphenyl)-1H-1,2,3-triazole-4-carboxamide] | – | 7.3 ± 1.1 | 2 | – |
| 0.475 ± 0.057 | > 40 | – | – | Cc1ccc(Cl)cc1NC(=O)c1cn(-c2ccc(Br)c(O)c2)nn1 [TR009, 1-(4-bromo-3-hydroxyphenyl)-N-(5-chloro-2-methylphenyl)-1H-1,2,3-triazole-4-carboxamide] | decreased activity | 2.4 ± 0.2 | – | – |
| > 20 | > 40 | – | – | Cc1ccc(Cl)cc1NC(=O)c1cn(-c2ccc(C)c(O)c2Cl)nn1 [TR010, N-(5-chloro-2-methylphenyl)-1-(2-chloro-3-hydroxy-4-methylphenyl)-1H-1,2,3-triazole-4-carboxamide] | – | 1.1 ± 0.1 | – | – |
| > 20 | > 40 | – | – | Cc1ccc(-n2cc(C(=O)Nc3cc(Cl)ccc3C)nn2)cc1O [TR011, N-(5-chloro-2-methylphenyl)-1-(3-hydroxy-4-methylphenyl)-1H-1,2,3-triazole-4-carboxamide] | inactive | 1.4 ± 0.1 | – | – |
| 10.6 ± 1.4 | > 40 | – | – | Cc1ccc(Cl)cc1NC(=O)c1cn(-c2cccc(O)c2C)nn1 [TR012, N-(5-chloro-2-methylphenyl)-1-(3-hydroxy-2-methylphenyl)-1H-1,2,3-triazole-4-carboxamide] | inactive | 1.4 ± 0.1 | – | – |
| 0.534 ± 0.047 | 6.2 ± 1.2 | – | – | Cc1ccc(Cl)cc1NC(=O)c1cn(-c2cc(O)cc(C(F)(F)F)c2)nn1 [TR013, N-(5-chloro-2-methylphenyl)-1-(3-(trifluoromethyl)-5-hydroxyphenyl)-1H-1,2,3-triazole-4-carboxamide] | significantly reduced activity | 2.9 ± 0.1 | – | – |
| – | – | 0.152 | 29 | Cc1ccc(Cl)cc1NC(=O)c1cn(-c2cccc(O)c2F)nn1 [drawing 51] | – | – | – | 7.8 |
| – | – | 0.01 | 14 | Cc1ccc(Cl)cc1NC(=O)c1cn(-c2cc(O)cc(F)c2)nn1 [drawing 52] | – | – | – | 13.09 |
| – | – | > 20 | > 40 | Cc1ccc(Cl)cc1NC(=O)c1cn(-c2cc(O)ccc2F)nn1 [drawing 53] | – | – | – | 1.4 |
| – | – | 0.782 | > 40 | Cc1ccc(Cl)cc1NC(=O)c1cn(-c2ccc(F)c(O)c2F)nn1 [drawing 58] | – | – | – | 2.6 |
| – | – | 0.135 | > 40 | Cc1ccc(Cl)cc1NC(=O)c1cn(-c2ccc(Cl)c(O)c2)nn1 [drawing 59] | – | – | – | 3.9 |
| – | – | 0.475 | > 40 | Cc1ccc(Cl)cc1NC(=O)c1cn(-c2ccc(Br)c(O)c2)nn1 [drawing 60] | – | – | – | 2.4 |
| – | – | > 20 | > 40 | Cc1ccc(Cl)cc1NC(=O)c1cn(-c2ccc(C)c(O)c2Cl)nn1 [drawing 66] | – | – | – | 1 |
| – | – | > 20 | > 40 | Cc1ccc(-n2cc(C(=O)Nc3cc(Cl)ccc3C)nn2)cc1O [drawing 67] | – | – | – | 1.4 |
| – | – | 10.6 | > 40 | Cc1ccc(Cl)cc1NC(=O)c1cn(-c2cccc(O)c2C)nn1 [drawing 68] | – | – | – | 1.4 |
| – | – | 0.028 | > 40 | Cc1ccc(Cl)cc1NC(=O)c1cn(-c2cc(O)cc(Cl)c2)nn1 [drawing 69] | – | – | – | 7.3 |
| – | – | > 20 | > 40 | Cc1ccc(Cl)cc1NC(=O)c1cn(-c2cccc(O)c2Cl)nn1 [drawing 70] | – | – | – | 1.2 |
| – | – | 0.534 | 6 | Cc1ccc(Cl)cc1NC(=O)c1cn(-c2cc(O)cc(C(F)(F)F)c2)nn1 [drawing 71] | – | – | – | 3 |

| Compound | EC50 [1, 4] [µM] | EC50 [3, 6] [µM] | EC50 [1, 7] [µM] | EC50 [3, 9] [µM] | mtPTP inhibitory activity (in words) [1] | CRC/CRC0 at 1.25 μM [2, 5] | fold decrease in activity compared to TR002 ([1]; mitochondrial swelling, vs TR002) [fold] | CRC/CRC0 at 1.25 μM [2, 8] |
| --- | --- | --- | --- | --- | --- | --- | --- | --- |
| Cc1ccc(Cl)cc1NC(=O)c1cc(-c2ccc(F)c(O)c2)on1 [drawing 45] | – | – | 0.002 | > 100 | – | – | – | 13.5 |
| Cc1ccc(Cl)cc1NC(=O)c1cn(-c2ccc(F)c(O)c2)nn1 [drawing 46] | – | – | 0.025 | > 100 | – | – | – | 7.4 |
| Cc1ccc(Cl)cc1NC(=O)c1cn(-c2ccc(F)c(O)c2)nn1 [drawing 47] | – | – | 4 | 10 | – | – | – | 1 |
